Results published in article PMC8351955, “Targeting Mycobacterium tuberculosis response to environmental cues for the development of effective antitubercular drugs” (PLoS Biology, 2021).
Converted amounts (≈) assume the structure as drawn. Where two headings read alike, the source gives them in different places.

Assays:
[1] = tested on: CDC1551(rv2390c′::GFP) reporter Mtb strain; details: pH 7
[2] = tested on: Mtb growth in J774 murine macrophage-like cells; assay: microbe, parasite or virus in culture; assay type: cell-based, Mycobacterium tuberculosis; details: for NPI (Mtb growth in J774 cells), average: Fig 1F
[3] = tested on: CDC1551(rv2390c′::GFP) reporter Mtb strain; assay: microbe, parasite or virus in culture; details: Mycobacterium tuberculosis, 216 h
[4] = tested on: WT Mtb (Erdman) in primary murine BMDMs; assay: Primary murine bone marrow-derived macrophage infection, CFU; assay type: cell-based, Mycobacterium tuberculosis; details: 10 μM; for CFU/ml in BMDMs, average: Fig 1I
Description: C57BL/6J wild-type mice (Jackson Laboratories) were used for extraction of BMDMs. Cells were harvested and expanded in DMEM containing 10% FBS, 15% L-cell conditioned media, 2 mM L-glutamine, 1 mM sodium pyruvate, and penicillin/streptomycin as needed in a 37°C incubator in a 5% CO2 atmosphere. […] Macrophages were lysed with water containing 0.01% sodium dodecyl sulfate and a dilution series of the samples plated on 7H10 agar for CFU determination.

[5] = tested on: CDC1551(rv1405c′::GFP) reporter Mtb strain; assay: microbe, parasite or virus in culture; assay type: cell-based, Mycobacterium tuberculosis; details: for NPA - rv1405c'::GFP, average: Fig 1D
[6] = Mouse liver microsomal stability; assay type: in vitro ADME; details: mouse liver microsomes; read-out: half-life (t1/2) in mouse liver microsomes
Description: (§1) Assays examining mouse and human liver microsomal stability, kinetic aqueous solubility, mouse and human plasma protein binding and stability, and human cytochrome P450 inhibition characteristics of the compounds were run by BioDuro (San Diego, CA), using standard protocols as previously described [37]. hERG inhibition assays were also performed by BioDuro.

[7] = tested on: CDC1551(rv2390c′::GFP) reporter Mtb strain, response to high [Cl−]; assay: microbe, parasite or virus in culture; assay type: cell-based, Mycobacterium tuberculosis
[8] = Kinetic aqueous solubility; assay type: physicochemical; details: pH 7.4 phosphate buffered saline; read-out: kinetic aqueous solubility (S)
Description: as §1

[9] = tested on: Mtb growth in J774 macrophage-like cells; assay: J774 infection in 96-well plates, mKO fluorescence 6 days post-infection; assay type: cell-based, Mycobacterium tuberculosis; details: 6 days post-infection
Description: For J774 infection in 96-well plates, 1.8 × 10^5 J774 cells were seeded per well in 180 μl of J774 infection media 1 day prior to infection. On the day of the assay, log-phase Mtb constitutively expressing mKO were pelleted and resuspended in 1 ml basal uptake buffer, passed 6× through a tuberculin syringe with a 25 G × 5/8″ needle, then resuspended in J774 infection media to a final OD600 = 0.2. Media was removed from 96-well plate containing the J774 cells, with 140 μl of fresh J774 infection media added back to each well. A volume of 40 μl of the Mtb suspension at OD600 = 0.2 was added to each well, followed by addition of appropriate concentration of compound or DMSO in a 20-μl final volume in J774 infection media (compound final concentration 10 μM, rifampicin final concentration 5 μM, DMSO final concentration 0.1%/well). Bacterial mKO fluorescence was read immediately after infection using a Biotek Synergy Neo2 microplate reader (bottom read monochromator, excitation 543/10 nm, emission 565/10 nm), and again 6 days post-infection. Plates were kept in humidified ziplock bags in a 37°C, 5% CO2 incubator. mKO fluorescence in DMSO-treated control samples were defined as 100% growth, and fluorescence observed in treatment conditions calculated as a percentage from that set value.

[10] = Pharmacokinetic assay, single oral dose in CD-1 mice; assay type: in vivo; details: female, mouse, plasma; CD-1 mice, single 5 mg/kg po dose; read-out: plasma AUC0–5h
Description: Blood samples were collected in K2EDTA-coated tubes predose, 0.5, 1, 3, and 5 hours post-dose, placed on ice, and centrifuged to recover plasma. The recovered plasma was kept at −80°C as needed prior to analysis, which was performed as previously described. In brief, a Sciex Applied Biosystems Qtrap 4000 triple-quadrupole mass spectrometer coupled to an Agilent 1260 HPLC system was used for HPLC coupled to tandem mass spectrometry (LC–MS/MS) quantitative analysis of the samples, with chromatography attained using an Agilent Zorbax SB-C8 column (2.1 × 30 mm; particle size, 3.5 μm) and a reverse-phase gradient elution. The aqueous mobile phase consisted of Milli-Q deionized water with 0.1% formic acid (A), while the organic mobile phase was 0.1% formic acid in acetonitrile (B). The gradient setup was as follows: 5% to 90% B over 2 minutes, 1 minute at 90% B, then an immediate drop to 5% B and an additional 1 minute at 5% B. Quantification of molecules was carried out via multiple reaction monitoring of parent/daughter transitions in electrospray positive ionization mode, and sample analyses accepted if quality control and standard samples had concentrations within 20% of the nominal concentration. Preparation of compounds for generation of standard curves and quality control spiking solutions were performed as previously described. Data were processed using Analyst software (Version 1.6.2; Applied Biosystems Sciex, Framingham, MA).

SMILES: O=C(c1cnc2ccccn12)N1CCCC(CCc2cccc(C(F)(F)F)c2)C1 (stereo not shown) [C5, FC(F)(F)C1=CC=CC(CCC2CCCN(C2)C(=O)C2=CN=C3C=CC=CN23)=C1]
- Ability to increase rv2390c′::GFP reporter signal in high [Cl−] [1]: increased rv2390c′::GFP reporter signal
- NPI (Mtb growth in J774 cells), average ([2]; 0.078125 µM, 5 µM rifampicin = 100% inhibition): -6.175%
- NPI (Mtb growth in J774 cells), average ([2]; 0.15625 µM): 0.5445%
- NPI (Mtb growth in J774 cells), average ([2]; 0.3125 µM): -0.235%
- NPI (Mtb growth in J774 cells), average ([2]; 0.625 µM): 9.79%
- NPI (Mtb growth in J774 cells), average ([2]; 1.25 µM): 32.35%
- NPI (Mtb growth in J774 cells), average ([2]; 2.5 µM): 39.55%
- NPI (Mtb growth in J774 cells), average ([2]; 5 µM): 48.4%
- NPI (Mtb growth in J774 cells), average ([2]; 10 µM): 50.85%
- NPI (Mtb growth in J774 cells), average ([2]; 20 µM): 55%
- inhibition at 10 µM ([2]; Mycobacterium tuberculosis, J774, 144 h, read-out: J774 tertiary assay % inhibition compared to Rif at 10 µM compound): 50.9 ± 3.2%
- inhibition at 20 µM ([2]; Mycobacterium tuberculosis, J774, 144 h, read-out: J774 tertiary assay % inhibition compared to Rif at 20 µM compound): 55 ± 5.8%
- fold induction at 10 µM ([3]; pH 7, read-out: Fold induction of rv2390c′::GFP reporter, average): 6.34
- fold induction at 10 µM ([3]; read-out: Fold induction of rv2390c′::GFP reporter, average): 5.92
- Effect on bacterial load / Mtb growth in primary murine BMDMs ([4]; 8-day infection time course, vs DMSO): significant decrease in bacterial load
- CFU/ml in BMDMs, average ([4]; day 2): 152000 CFU/ml
- CFU/ml in BMDMs, average ([4]; day 4): 191000 CFU/ml
- CFU/ml in BMDMs, average ([4]; day 6): 264500 CFU/ml
- CFU/ml in BMDMs, average ([4]; day 8): 318000 CFU/ml
- NPA - rv1405c'::GFP, average ([5]; 0.0390625 µM): 91.05%
- NPA - rv1405c'::GFP, average ([5]; 0.078125 µM): 91.6%
- NPA - rv1405c'::GFP, average ([5]; 0.15625 µM): 98.45%
- NPA - rv1405c'::GFP, average ([5]; 0.3125 µM): 118%
- NPA - rv1405c'::GFP, average ([5]; 0.625 µM): 125%
- NPA - rv1405c'::GFP, average ([5]; 1.25 µM): 130%
- NPA - rv1405c'::GFP, average ([5]; 2.5 µM): 114.5%
- NPA - rv1405c'::GFP, average ([5]; 5 µM): 132.5%
- NPA - rv1405c'::GFP, average ([5]; 20 µM): 145.5%
- activity at 10 µM ([5]; Mycobacterium tuberculosis, read-out: rv1405c'::GFP secondary assay NPA% at 10 µM compound): 135 ± 14.8%
- activity at 20 µM ([5]; Mycobacterium tuberculosis, read-out: rv1405c'::GFP secondary assay NPA% at 20 µM compound): 147 ± 7%
- half-life [6]: 4.98 min
- NPA - rv2390c'::GFP, average ([7]; 0.0390625 µM, Fig 1C): 99.0333%
- NPA - rv2390c'::GFP, average ([7]; 0.078125 µM, Fig 1C): 96.3333%
- NPA - rv2390c'::GFP, average ([7]; 0.15625 µM, Fig 1C): 99.1%
- NPA - rv2390c'::GFP, average ([7]; 0.3125 µM, Fig 1C): 113.667%
- NPA - rv2390c'::GFP, average ([7]; 0.625 µM, Fig 1C): 116.667%
- NPA - rv2390c'::GFP, average ([7]; 1.25 µM, Fig 1C): 131.667%
- NPA - rv2390c'::GFP, average ([7]; 2.5 µM, Fig 1C): 132.333%
- NPA - rv2390c'::GFP, average ([7]; 5 µM, Fig 1C): 137%
- NPA - rv2390c'::GFP, average ([7]; 10 µM, Fig 1C): 131.333%
- NPA - rv2390c'::GFP, average ([7]; 20 µM, Fig 1C): 142.333%
- activity at 10 µM ([7]; Mycobacterium tuberculosis, 144 h, pH 6.4, […], DMSO positive control = 100%, read-out: Primary screen rv2390c'::GFP NPA%): 182%
- activity at 10 µM ([7]; Mycobacterium tuberculosis, 144 h, 10 µM, pH 6.4, 250 mM NaCl, 6 days, read-out: rv2390c'::GFP validation assay NPA% at 10 µM compound): 131 ± 9.8%
- activity at 20 µM ([7]; Mycobacterium tuberculosis, 144 h, 20 µM, pH 6.4, 250 mM NaCl, 6 days, read-out: rv2390c'::GFP validation assay NPA% at 20 µM compound): 142 ± 4.2%
- AC50 ([7]; Mycobacterium tuberculosis, 144 h, pH 6.4, 250 mM NaCl, 6 days, Fig 1C, read-out: AC50 (activatory concentration, 50%), rv2390c′::GFP): 0.5 µM
- solubility kinetic [8]: 6.67 µM (≈ 2.68 µg/mL)
- % growth of Mtb in J774 cells, average ([9]; 10 μM compound, DMSO = 100%, Fig 1H): 37.9568%
- Inhibition of Mtb growth in J774 cells ([9]; 10 μM): Mtb growth inhibition
- AUC(0-t) [10]: 0.042 µg·h/mL
